For test [1], the system named is Amyloid-β peptide release (Aβ42), HEK cells overexpressing APP (HEK-APP). The test can be described thus: Amyloid-β peptide release (Aβ42) assay, AlphaLISA on supernatant of HEK-APP cells. Format: cell-based. The following applies: Homo sapiens, HEK293, 24 h incubation with compound, read-out: Ab42 IC50 Ranges. As to the method:
(§1) Amyloid-β Peptide Release (Aβ42 & AβTotal) Assay to Determine IC50 Values.
(§2) Compounds are dissolved in and diluted in 100% DMSO and incubated with HEK-APP cells for 24 h at 37° C. in 5% CO2. The supernatant from HEK-APP cells are mixed with antibodies: for Aβ42 detection: AlphaLISA Amyloid-β 1-42 Kit (Perkin Elmer AL203L) Anti-Amyloid β1-42-specific antibody acceptor beads, biotinylated anti-Amyloid-“β1-42” antibody and streptavidin (SA) donor beads diluted in AlphaLISA buffer (to the instructions of the supplier). For Aβ total detection: Custom Anti-Amyloid-βtotal acceptor beads (6E10 acceptor beads), biotinylated anti-Amyloid “β1-42” antibody (Perkin Elmer AL203L) and streptavidin (SA) donor beads diluted in AlphaLISA buffer (to the instructions of the supplier). After addition of supernatant to the antibody mix, the assay is incubated for 4.5 h. Amyloid-β peptide release (Aβ42 & AβTotal) is measured with a Pherastar FS (BMG) multimode reader using the alphascreen module.
A general note: In Alpha technology, singlet oxygen from a donor bead excites a nearby acceptor bead.

The test system of test [2] is Amyloid-β peptide release (AβTotal), HEK cells overexpressing APP (HEK-APP). Kind of test: Amyloid-β peptide release (AβTotal) assay, AlphaLISA on supernatant of HEK-APP cells. Format: cell-based. Particulars: ratio Abtot vs Ab42, HEK-APP cells, 24 h. The protocol: as §1, §2

For the compound `Cc1ncc2oc(-c3ccc(Nc4nc5c(s4)CCCC5c4ccc(F)cc4)cc3)nn12` (stereo not shown) [Example 27, [4-(4-Fluoro-phenyl)-4,5,6,7-tetrahydro-benzothiazol-2-yl]-[4-(5-methyl-imidazo[5,1-b][1,2,4]oxadiazol-2-yl)-phenyl]-amine], the half-maximal inhibitory concentration (IC50) (as a rule, the concentration that gives 50% inhibition) in test [1] is 1000 to 2200 nM. Besides, the Abtot/Ab42 selectivity ranges result in test [2] is listed as “d (d: 10 fold > selectivity)”.

Consider `Cc1ncc2oc(-c3ccc(NCc4ccc(Cl)c(Cl)c4)cn3)nn12` [Example 28], for which the IC50 in test [1] was in the range of 100 to 500 nM. The Abtot/Ab42 selectivity ranges entry in test [2] was “d (d: 10 fold > selectivity)”.

With `Cc1ncc2oc(-c3ccc(Nc4ccn(Cc5ccc(Cl)cc5)n4)cc3)nn12` [Example 29, [1-(4-Chloro-benzyl)-1H-pyrazol-3-yl]-[4-(5-methyl-imidazo[5,1-b][1,2,4]oxadiazol-2-yl)-phenyl]-amine], in test [1], the IC50 lay within 1000 to 2200 nM. In test [2], the Abtot/Ab42 selectivity ranges result is given as “d (d: 10 fold > selectivity)”.

Take `Cc1ncc2oc(-c3ccc(Nc4ccn(Cc5ccc(Cl)c(Cl)c5)n4)cc3)nn12` [Example 30, [1-(3,4-Dichloro-benzyl)-1H-pyrazol-3-yl]-[4-(5-methyl-imidazo[5,1-b][1,2,4]oxadiazol-2-yl)-phenyl]-amine]: the IC50 in test [1] lay within 1000 to 2200 nM. Moreover, the Abtot/Ab42 selectivity ranges result in test [2] was “c (c: 50 fold > selectivity ≥ 10 fold)”.

`COc1cc(NC(=O)Cc2cccc(C(F)(F)F)c2)ccc1-c1nn2c(C)ncc2o1` [Example 31, N-(3-methoxy-4-(5-methylimidazo[5,1-b][1,3,4]oxadiazol-2-yl)phenyl)-2-(3-(trifluoromethyl)phenyl)acetamide]: the IC50 in test [1] fell in the range of 100 to 500 nM. The Abtot/Ab42 selectivity ranges result in test [2] is recorded as “a (a: selectivity ≥ 100 fold)”.

For `COc1cc(NC(=O)Cc2c(Cl)cc(C(F)(F)F)cc2Cl)ccc1-c1nn2c(C)ncc2o1` [Example 32, 2-(2,6-dichloro-4-(trifluoromethyl)phenyl)-N-(3-methoxy-4-(5-methylimidazo[5,1-b][1,3,4]oxadiazol-2-yl)phenyl) acetamide], the IC50 in test [1] fell in the range of 100 to 500 nM. Further, the Abtot/Ab42 selectivity ranges entry in test [2] is reported as “a (a: selectivity ≥ 100 fold)”.

In the case of `COc1cc(NC(=O)Cc2cccc(Cl)c2)ccc1-c1nn2c(C)ncc2o1` [Example 33, 2-(3-chlorophenyl)-N-(3-methoxy-4-(5-methylimidazo[5,1-b] [1,3,4]oxadiazol-2-yl)phenyl)acetamide], the IC50 in test [1] was in the range of 500 to 1000 nM. For the same compound, the Abtot/Ab42 selectivity ranges result in test [2] is “b (b: 100 fold > selectivity ≥ 50 fold)”.

`COc1cc(NC(=O)Cc2ccc(OC(F)(F)F)cc2)ccc1-c1nn2c(C)ncc2o1` [Example 34, N-(3-methoxy-4-(5-methylimidazo[5,1-b][1,3,4]oxadiazol-2-yl)phenyl)-2-(4-(trifluoromethoxy)phenyl)acetamide]: the IC50 in test [1] lay within 500 to 1000 nM. For the same compound, the Abtot/Ab42 selectivity ranges entry in test [2] is reported as “b (b: 100 fold > selectivity ≥ 50 fold)”.

Turning to `CCOc1ccc(CC(=O)Nc2ccc(-c3nn4c(C)ncc4o3)c(OC)c2)cc1` [Example 35, 2-(4-ethoxyphenyl)-N-(3-methoxy-4-(5-methylimidazo [5,1-b][1,3,4]oxadiazol-2-yl)phenyl)acetamide], in test [1], the IC50 is 500 to 1000 nM. In test [2], the Abtot/Ab42 selectivity ranges entry was “b (b: 100 fold > selectivity ≥ 50 fold)”.

`COc1cc(NC(=O)Cc2ccccc2)ccc1-c1nn2c(C)ncc2o1` [Example 36, N-(3-methoxy-4-(5-methylimidazo[5,1-b][1,3,4]oxadiazol-2-yl)phenyl)-2-phenylacetamide]: in test [1], the half-inhibitory concentration (IC50) is 1000 to 2200 nM. Further, in test [2], the Abtot/Ab42 selectivity ranges entry is on record as “c (c: 50 fold > selectivity ≥ 10 fold)”.

On to `COc1cc(NC(=O)Cc2ccccc2C(F)(F)F)ccc1-c1nn2c(C)ncc2o1` [Example 37, N-(3-methoxy-4-(5-methylimidazo[5,1-b][1,3,4]oxadiazol-2-yl)phenyl)-2-(2-(trifluoromethyl)phenyl)acetamide], for which, in test [1], the IC50 lay in the range of 1000 to 2200 nM. Besides, the Abtot/Ab42 selectivity ranges entry in test [2] is on record as “c (c: 50 fold > selectivity ≥ 10 fold)”.

As for `Cc1ccc(C)c(CC(=O)Nc2ccc(-c3nn4c(C)ncc4o3)cc2C)c1` [Example 38], the IC50 in test [1] fell in the range of 100 to 500 nM. The Abtot/Ab42 selectivity ranges result in test [2] was “a (a: selectivity ≥ 100 fold)”.

For the compound `Cc1cc(-c2nn3c(C)ncc3o2)ccc1NC(=O)Cc1ccc(C(F)(F)F)cc1` [Example 39, N-(2-methyl-4-(5-methylimidazo[5,1-b][1,3,4]oxadiazol-2-yl)phenyl)-2-(4-(trifluoromethyl)phenyl)acetamide], the half-inhibitory concentration (IC50) in test [1] was in the range of 500 to 1000 nM. The Abtot/Ab42 selectivity ranges entry in test [2] is “b (b: 100 fold > selectivity ≥ 50 fold)”.

As for `Cc1cc(-c2nn3c(C)ncc3o2)ccc1NC(=O)Cc1ccccc1C(F)(F)F` [Example 40, N-(2-methyl-4-(5-methylimidazo[5,1-b][1,3,4]oxadiazol-2-yl)phenyl)-2-(2-(trifluoromethyl)phenyl)acetamide], in test [1], the IC50 lay within 500 to 1000 nM. The Abtot/Ab42 selectivity ranges entry in test [2] was “b (b: 100 fold > selectivity ≥ 50 fold)”.

Turning to `Cc1cc(-c2nn3c(C)ncc3o2)ccc1NC(=O)Cc1cccc(C(F)(F)F)c1` [Example 41, N-(2-methyl-4-(5-methylimidazo[5,1-b][1,3,4]oxadiazol-2-yl)phenyl)-2-(3-(trifluoromethyl)phenyl)acetamide], in test [1], the IC50 was 500 to 1000 nM. Besides, in test [2], the Abtot/Ab42 selectivity ranges entry was “b (b: 100 fold > selectivity ≥ 50 fold)”.

On to `Cc1cc(-c2nn3c(C)ncc3o2)ccc1NC(=O)Cc1c(Cl)cc(C(F)(F)F)cc1Cl` [Example 42, 2-(2,6-dichloro-4-(trifluoromethyl)phenyl)-N-(2-methyl-4-(5-methylimidazo[5,1-b][1,3,4]oxadiazol-2-yl)phenyl)acetamide], for which the IC50 in test [1] was in the range of 500 to 1000 nM. Besides, the Abtot/Ab42 selectivity ranges result in test [2] is “b (b: 100 fold > selectivity ≥ 50 fold)”.

As for `Cc1cc(-c2nn3c(C)ncc3o2)ccc1NC(=O)Cc1cccc(Cl)c1` [Example 43, 2-(3-chlorophenyl)-N-(2-methyl-4-(5-methylimidazo[5,1-b][1,3,4]oxadiazol-2-yl)phenyl)acetamide], the IC50 in test [1] lay in the range of 1000 to 2200 nM. Also, the Abtot/Ab42 selectivity ranges result in test [2] is “c (c: 50 fold > selectivity ≥ 10 fold)”.

In the case of `Cc1cc(-c2nn3c(C)ncc3o2)ccc1NC(=O)Cc1ccc(Cl)cc1` [Example 44, 2-(4-chlorophenyl)-N-(2-methyl-4-(5-methylimidazo[5,1-b][1,3,4]oxadiazol-2-yl)phenyl)acetamide], in test [1], the IC50 lay in the range of 500 to 1000 nM. For the same compound, the Abtot/Ab42 selectivity ranges result in test [2] is listed as “b (b: 100 fold > selectivity ≥ 50 fold)”.

For the compound `Cc1cc(-c2nn3c(C)ncc3o2)ccc1NC(=O)Cc1ccc(OC(F)(F)F)cc1` [Example 45, N-(2-methyl-4-(5-methylimidazo[5,1-b][1,3,4]oxadiazol-2-yl)phenyl)-2-(4-(trifluoromethoxy)phenyl)acetamide], the IC50 in test [1] lay within 500 to 1000 nM. In test [2], the Abtot/Ab42 selectivity ranges result is listed as “b (b: 100 fold > selectivity ≥ 50 fold)”.

As to `Cc1cc(-c2nn3c(C)ncc3o2)ccc1NC(=O)C(C)c1cccc(C(F)(F)F)c1` (stereo not shown) [Example 46, N-(2-methyl-4-(5-methylimidazo[5,1-b][1,3,4]oxadiazol-2-yl)phenyl)-2-(3-(trifluoromethyl)phenyl)propanamide], the IC50 in test [1] lay within 500 to 1000 nM. Further, the Abtot/Ab42 selectivity ranges entry in test [2] is recorded as “b (b: 100 fold > selectivity ≥ 50 fold)”.

As to `Cc1ncc2oc(-c3ccc(NC(=O)Cc4ccc(Cl)cc4)cc3)nn12` [Example 47, 2-(4-Chloro-phenyl)-N-[4-(5-methyl-imidazo[5,1-b] [1,2,4]oxadiazol-2-yl)-phenyl]-acetamide], the IC50 in test [1] lay in the range of 500 to 1000 nM. Moreover, the Abtot/Ab42 selectivity ranges result in test [2] is “c (c: 50 fold > selectivity ≥ 10 fold)”.

In the case of `Cc1ncc2oc(-c3ccc(NC(=O)Cc4ccc(C(F)(F)F)cc4)cc3)nn12` [Example 48, N-[4-(5-Methyl-imidazo[5,1-b][1,2,4]oxadiazol-2-yl)-phenyl]-2-(4-trifluoromethyl-phenyl)-acetamide], the IC50 in test [1] lay within 1000 to 2200 nM. The Abtot/Ab42 selectivity ranges result in test [2] is “c (c: 50 fold > selectivity ≥ 10 fold)”.

Take `Cc1ncc2oc(-c3ccc(NC(=O)Cc4ccc(C#N)cc4)cc3)nn12` [Example 49, 2-(4-Cyano-phenyl)-N-[4-(5-methyl-imidazo[5,1-b] [1,2,4]oxadiazol-2-yl)-phenyl]-acetamide]: the IC50 in test [1] was in the range of 1000 to 2200 nM. In test [2], the Abtot/Ab42 selectivity ranges result is listed as “c (c: 50 fold > selectivity ≥ 10 fold)”.

As to `Cc1ccc(C)c(CC(=O)Nc2ccc(-c3nn4c(C)ncc4o3)cc2)c1` [Example 50], the IC50 in test [1] lay in the range of 500 to 1000 nM. For the same compound, the Abtot/Ab42 selectivity ranges entry in test [2] is reported as “c (c: 50 fold > selectivity ≥ 10 fold)”.

As for `Cc1cc(C)cc(CC(=O)Nc2ccc(-c3nn4c(C)ncc4o3)cc2)c1` [Example 51, 2-(3,5-Dimethyl-phenyl)-N-[4-(5-methyl-imidazo[5,1-b][1,2,4]oxadiazol-2-yl)-phenyl]-acetamide], in test [1], the IC50 is 500 to 1000 nM. The Abtot/Ab42 selectivity ranges entry in test [2] was “c (c: 50 fold > selectivity ≥ 10 fold)”.

`Cc1ncc2oc(-c3ccc(NC(=O)Nc4cccc(C(F)(F)F)c4)cc3)nn12` [Example 52, 1-[4-(5-Methyl-imidazo[5,1-b][1,2,4]oxadiazol-2-yl)-phenyl]-3-(3-trifluoromethyl-phenyl)-urea]: in test [1], the IC50 lay in the range of 1000 to 2200 nM. Moreover, the Abtot/Ab42 selectivity ranges entry in test [2] is “d (d: 10 fold > selectivity)”.

These data come from patent US9932354B2, “Imidazo-oxadiazole and imidazo-thiadiazole derivatives” (Ares Trading S.A., priority 2012, dated 2018).
